# Assay results from US20030216398A1, “Soluble beta amyloid precursor protein secretion promoters” (priority 2002, published 2003).
# Experiments:
# [1] = system: sAPP Secretion in Rat-Derived Pheochromocytoma PC12h Cells; assay: sAPP secretion promoting activity in PC12h cells (Western blotting of culture supernatant); type: cell-based; settings: 3 hours after addition
# Description: Substrain PC12 h cells of rat-derived pheochromocytoma PC12 h cells (Brain Res., 222 (191), p. 225-233) were handed out by Professor Hiroshi Hatanaka of Osaka University. Dulbecco's modified Eagle's medium (DMEM) was purchased from Nissui Seiyaku K.K., HEPES (N-2-hydroxyethylpiperazine-N′-2-ethanesulfonic acid) buffer (pH 7.4), horse serum (HS) and a penicillin (5000 U/ml)/streptomycin (5 mg/ml) mixture from Gibco, and fetal calf serum (FCS) from BioWhittaker, Inc. A flask for incubation and a 6-well multi-well plate coated with collagen manufactured by Falcon Co., Ltd. and Iwaki Glass Co., Ltd., respectively, were used. Anti-βAPP 22C11 antibody was purchased from Roche Diagnostics, Inc. Other reagents used were special grade chemicals commercially available.
# PC12h cells were grown in DMEM medium supplemented with 10% FCS/5% HS/penicillin-streptomycin, the cells were taken out by pipetting. The cells were inoculated on the collagen-coated 6-well plate to become 50-70% confluent, which was allowed to stand for a day. On the following day, the well was rinsed twice with 1 ml of […] HEPES/DMEM. […]
# The culture supernatant was concentrated by ultrafiltration using Microcon 10 (Amicon, Inc.). […] ECL Plus (Amersham, Inc.) was used for detection, followed by digitalization in Fluor-S Max (Bio-Rad Laboratories) and quantification using NIH-image.
# PC12h cells = assay: Prevention of glutamate-induced cell death (apoptosis) in PC12h cells, surviving cells by LDH activity; type: cell-based, rat; settings: 1 mM glutamate, 72 hours, mean of 3 wells
# Description: Substrain PC12h cells of rat-derived pheochromocytoma PC12 h cells were handed out by Professor Hiroshi Hatanaka of Osaka University. Dulbecco's modified Eagle's medium (DMEM) was purchased from Nissui Seiyaku K.K., HEPES (N-2-hydroxyethylpiperazine-N′-2-ethanesulfonic acid) buffer (pH 7.4), horse serum (HS) and a penicillin (5000 U/ml)/streptomycin (5 mg/ml) mixture from Gibco, fetal calf serum (FCS) from BioWhittaker, Inc., transferrin, insulin and progesterone from Sigma, Inc. A flask for incubation and a collagen-coated 96-well multi-well plate used were manufactured by Falcon Co., Ltd. and Iwaki Glass Co., Ltd., respectively. LDH cytotoxic test Wako was purchased from Wako Pure Chemical Industries, Ltd. Other reagents used were special grade chemicals commercially available.
# PC12h cells were inoculated on the 96-well plate in 2×10^4 cells/cm^2. On the following day, the medium was exchanged with HEPES/DME medium containing […] and 20 nM progesterone. The cells survived 72 hours after were counted. The cell number was determined by solubilizing the cells survived in PBS containing Tween 20 after removal of the medium and assaying in terms of the LDH activity.
# In PC12h cells, glutamate in the medium hampers uptake of cystine, or a material to make glutathione, into cells. Thus, when 1 mM or more glutamates are added to a medium and incubation is continued for 3 days or longer, it is known that PC12h cells become extinct due to apoptosis accompanied by a reduced level of glutathione in the cells.
melting point,SMILES,"sAPP secretion level (relative value to the control group, when the control group is made 100) ([1]; 3 μM of each compound, mean of 3 wells, anti-βAPP 22C11 Western blotting quantified with NIH Image)","sAPP level increase as compared to the control group ([1]; 3 μM, mean relative value in 3 wells (FIG. 2))",Surviving Rate (%) (PC12h cells; 0.1 μM compound),Surviving Rate (%) (PC12h cells; 0.3 μM compound),Surviving Rate (%) (PC12h cells; 1.0 μM compound),Surviving Rate (%) (PC12h cells; 3.0 μM compound),Surviving Rate (%) (PC12h cells; 10.0 μM compound)
,"COc1ccc(C(=O)N2c3ccccc3[C@H](Nc3ccccc3)C[C@@H]2C)cc1OC (relative stereo) [Compound 1-3, cis-1-(3,4-dimethoxybenzoyl)-2-methyl-N-phenyl-1,2,3,4-tetrahydro-4-quinolinamine]",325.14,3.3 times,4.89%,7.44%,49.17%,77.51%,63.24%
170 to 171 °C,"COc1ccc(C(=O)N2CCC(N(C)c3ccccc3C)c3ccccc32)cc1OC (centres unmarked) [Example 25, 1-(3,4-Dimethoxybenzoyl)-N-methyl-N-(2-methylphenyl)-1,2,3,4-tetrahydro-4-quinolinamine]",,,,,,,
